Laboratory results from the supplement of paper PMC10307832.

Key:
Assay in all cases: relative viability (nuclei count vs DMSO), 5 days (fraction); higher = more cells survive
IPA-3 + Tozasertib = compound: C1=CC=C2C(=C1)C=CC(=C2SSC3=C(C=CC4=CC=CC=C43)O)O [IPA-3] + Cc1cc(Nc2cc(N3CCN(C)CC3)nc(Sc3ccc(NC(=O)C4CC4)cc3)n2)n[nH]1 [Tozasertib] (partner 0.1 µM)
How it was run: (§1)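 A single step with final 0.05% Triton X-100, 1% formaldehyde and 1 ug/ml Hoechst fixed the cells and stained nuclei 5 days after treatment. Lung cancer cell lines in 1536-well plates had been treated by pin tool the day after seeding with one drug alone or a fixed anchor-drug dose plus five library-drug doses (not always all listed) in √10 steps, and nuclei were counted on 4× images. Relative viability is the ratio of nuclei in treated wells to nuclei in vehicle wells, taken as the median of duplicate plates.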

Doramapimod + Decitabine = compound: Cc1ccc(-n2nc(C(C)(C)C)cc2NC(=O)Nc2ccc(OCCN3CCOCC3)c3ccccc23)cc1 [Doramapimod] + Nc1ncn([C@H]2C[C@H](O)[C@@H](CO)O2)c(=O)n1 [Decitabine] (partner 2 µM)
How it was run: as §1

Doramapimod + Phenformin = compound: Cc1ccc(-n2nc(C(C)(C)C)cc2NC(=O)Nc2ccc(OCCN3CCOCC3)c3ccccc23)cc1 [Doramapimod] + N=C(N)NC(=N)NCCc1ccccc1 [Phenformin] (partner 250 µM)
How it was run: as §1

IPA-3 + Bortezomib = compound: C1=CC=C2C(=C1)C=CC(=C2SSC3=C(C=CC4=CC=CC=C43)O)O [IPA-3] + CC(C)C[C@H](NC(=O)[C@H](Cc1ccccc1)NC(=O)c1cnccn1)B(O)O [Bortezomib] (partner 0.002 µM)
How it was run: as §1

Cell Line: NCI-H2405
- relative viability (IPA-3 + Tozasertib; first compound 0.2 µM): 0.796
- relative viability (IPA-3 + Tozasertib; first compound 0.6325 µM): 0.755
- relative viability (IPA-3 + Tozasertib; first compound 2 µM): 0.727
- relative viability (IPA-3 + Tozasertib; first compound 6.325 µM): 0.748
- relative viability (IPA-3 + Tozasertib; first compound 20 µM): 0.774
- relative viability (Doramapimod + Decitabine; first compound 0.02 µM): 0.758
- relative viability (Doramapimod + Decitabine; first compound 0.06325 µM): 0.713
- relative viability (Doramapimod + Decitabine; first compound 0.2 µM): 0.703
- relative viability (Doramapimod + Decitabine; first compound 0.6325 µM): 0.861
- relative viability (Doramapimod + Decitabine; first compound 2 µM): 0.685
- relative viability (Doramapimod + Phenformin; first compound 0.02 µM): 0.402
- relative viability (Doramapimod + Phenformin; first compound 0.06325 µM): 0.374
- relative viability (Doramapimod + Phenformin; first compound 0.2 µM): 0.335
- relative viability (Doramapimod + Phenformin; first compound 0.6325 µM): 0.423
- relative viability (Doramapimod + Phenformin; first compound 2 µM): 0.316
- relative viability (IPA-3 + Bortezomib; first compound 0.2 µM): 1.02
- relative viability (IPA-3 + Bortezomib; first compound 0.6325 µM): 0.944
- relative viability (IPA-3 + Bortezomib; first compound 2 µM): 1.02
- relative viability (IPA-3 + Bortezomib; first compound 6.325 µM): 0.963
- relative viability (IPA-3 + Bortezomib; first compound 20 µM): 1.02

Cell Line: NCI-H3122
- relative viability (IPA-3 + Tozasertib; first compound 0.2 µM): 0.431
- relative viability (IPA-3 + Tozasertib; first compound 0.6325 µM): 0.4
- relative viability (IPA-3 + Tozasertib; first compound 2 µM): 0.381
- relative viability (IPA-3 + Tozasertib; first compound 6.325 µM): 0.509
- relative viability (IPA-3 + Tozasertib; first compound 20 µM): 0.428
- relative viability (Doramapimod + Decitabine; first compound 0.02 µM): 0.427
- relative viability (Doramapimod + Decitabine; first compound 0.06325 µM): 0.445
- relative viability (Doramapimod + Decitabine; first compound 0.2 µM): 0.394
- relative viability (Doramapimod + Decitabine; first compound 0.6325 µM): 0.491
- relative viability (Doramapimod + Decitabine; first compound 2 µM): 0.415
- relative viability (Doramapimod + Phenformin; first compound 0.02 µM): 0.381
- relative viability (Doramapimod + Phenformin; first compound 0.06325 µM): 0.423
- relative viability (Doramapimod + Phenformin; first compound 0.2 µM): 0.407
- relative viability (Doramapimod + Phenformin; first compound 0.6325 µM): 0.38
- relative viability (Doramapimod + Phenformin; first compound 2 µM): 0.36
- relative viability (IPA-3 + Bortezomib; first compound 0.2 µM): 0.994
- relative viability (IPA-3 + Bortezomib; first compound 0.6325 µM): 1.01
- relative viability (IPA-3 + Bortezomib; first compound 2 µM): 1.03
- relative viability (IPA-3 + Bortezomib; first compound 6.325 µM): 1.13
- relative viability (IPA-3 + Bortezomib; first compound 20 µM): 0.938

Cell Line: PC-3 [JPC-3]
- relative viability (IPA-3 + Tozasertib; first compound 0.2 µM): 0.995
- relative viability (IPA-3 + Tozasertib; first compound 0.6325 µM): 0.847
- relative viability (IPA-3 + Tozasertib; first compound 2 µM): 0.869
- relative viability (IPA-3 + Tozasertib; first compound 6.325 µM): 0.833
- relative viability (IPA-3 + Tozasertib; first compound 20 µM): 0.878
- relative viability (Doramapimod + Decitabine; first compound 0.02 µM): 0.834
- relative viability (Doramapimod + Decitabine; first compound 0.06325 µM): 0.816
- relative viability (Doramapimod + Decitabine; first compound 0.2 µM): 0.857
- relative viability (Doramapimod + Decitabine; first compound 0.6325 µM): 0.888
- relative viability (Doramapimod + Decitabine; first compound 2 µM): 0.766
- relative viability (Doramapimod + Phenformin; first compound 0.02 µM): 0.506
- relative viability (Doramapimod + Phenformin; first compound 0.06325 µM): 0.475
- relative viability (Doramapimod + Phenformin; first compound 0.2 µM): 0.474
- relative viability (Doramapimod + Phenformin; first compound 0.6325 µM): 0.502
- relative viability (Doramapimod + Phenformin; first compound 2 µM): 0.453
- relative viability (IPA-3 + Bortezomib; first compound 0.2 µM): 0.92
- relative viability (IPA-3 + Bortezomib; first compound 0.6325 µM): 0.885
- relative viability (IPA-3 + Bortezomib; first compound 2 µM): 0.786
- relative viability (IPA-3 + Bortezomib; first compound 6.325 µM): 0.824
- relative viability (IPA-3 + Bortezomib; first compound 20 µM): 0.873

Cell Line: PC-14
- relative viability (IPA-3 + Tozasertib; first compound 0.2 µM): 0.693
- relative viability (IPA-3 + Tozasertib; first compound 0.6325 µM): 0.612
- relative viability (IPA-3 + Tozasertib; first compound 2 µM): 0.647
- relative viability (IPA-3 + Tozasertib; first compound 6.325 µM): 0.539
- relative viability (IPA-3 + Tozasertib; first compound 20 µM): 0.649
- relative viability (Doramapimod + Decitabine; first compound 0.02 µM): 0.261
- relative viability (Doramapimod + Decitabine; first compound 0.06325 µM): 0.22
- relative viability (Doramapimod + Decitabine; first compound 0.2 µM): 0.215
- relative viability (Doramapimod + Decitabine; first compound 0.6325 µM): 0.277
- relative viability (Doramapimod + Decitabine; first compound 2 µM): 0.197
- relative viability (Doramapimod + Phenformin; first compound 0.02 µM): 0.662
- relative viability (Doramapimod + Phenformin; first compound 0.06325 µM): 0.721
- relative viability (Doramapimod + Phenformin; first compound 0.2 µM): 0.809
- relative viability (Doramapimod + Phenformin; first compound 0.6325 µM): 0.762
- relative viability (Doramapimod + Phenformin; first compound 2 µM): 0.475
- relative viability (IPA-3 + Bortezomib; first compound 0.2 µM): 1.09
- relative viability (IPA-3 + Bortezomib; first compound 0.6325 µM): 0.79
- relative viability (IPA-3 + Bortezomib; first compound 2 µM): 0.914
- relative viability (IPA-3 + Bortezomib; first compound 6.325 µM): 0.805
- relative viability (IPA-3 + Bortezomib; first compound 20 µM): 1.04

Cell Line: RERF-LC-KJ
- relative viability (IPA-3 + Tozasertib; first compound 0.2 µM): 0.513
- relative viability (IPA-3 + Tozasertib; first compound 0.6325 µM): 0.452
- relative viability (IPA-3 + Tozasertib; first compound 2 µM): 0.471
- relative viability (IPA-3 + Tozasertib; first compound 6.325 µM): 0.456
- relative viability (IPA-3 + Tozasertib; first compound 20 µM): 0.403
- relative viability (Doramapimod + Decitabine; first compound 0.02 µM): 0.733
- relative viability (Doramapimod + Decitabine; first compound 0.06325 µM): 0.669
- relative viability (Doramapimod + Decitabine; first compound 0.2 µM): 0.663
- relative viability (Doramapimod + Decitabine; first compound 0.6325 µM): 0.684
- relative viability (Doramapimod + Decitabine; first compound 2 µM): 0.669
- relative viability (Doramapimod + Phenformin; first compound 0.02 µM): 0.401
- relative viability (Doramapimod + Phenformin; first compound 0.06325 µM): 0.443
- relative viability (Doramapimod + Phenformin; first compound 0.2 µM): 0.395
- relative viability (Doramapimod + Phenformin; first compound 0.6325 µM): 0.472
- relative viability (Doramapimod + Phenformin; first compound 2 µM): 0.458
- relative viability (IPA-3 + Bortezomib; first compound 0.2 µM): 1.33
- relative viability (IPA-3 + Bortezomib; first compound 0.6325 µM): 1.36
- relative viability (IPA-3 + Bortezomib; first compound 2 µM): 1.12
- relative viability (IPA-3 + Bortezomib; first compound 6.325 µM): 1.25
- relative viability (IPA-3 + Bortezomib; first compound 20 µM): 1.18

Cell Line: SK-LU-1
- relative viability (IPA-3 + Tozasertib; first compound 0.2 µM): 0.328
- relative viability (IPA-3 + Tozasertib; first compound 0.6325 µM): 0.36
- relative viability (IPA-3 + Tozasertib; first compound 2 µM): 0.338
- relative viability (IPA-3 + Tozasertib; first compound 6.325 µM): 0.339
- relative viability (IPA-3 + Tozasertib; first compound 20 µM): 0.302
- relative viability (Doramapimod + Decitabine; first compound 0.02 µM): 0.636
- relative viability (Doramapimod + Decitabine; first compound 0.06325 µM): 0.617
- relative viability (Doramapimod + Decitabine; first compound 0.2 µM): 0.662
- relative viability (Doramapimod + Decitabine; first compound 0.6325 µM): 0.637
- relative viability (Doramapimod + Decitabine; first compound 2 µM): 0.592
- relative viability (Doramapimod + Phenformin; first compound 0.02 µM): 0.613
- relative viability (Doramapimod + Phenformin; first compound 0.06325 µM): 0.516
- relative viability (Doramapimod + Phenformin; first compound 0.2 µM): 0.542
- relative viability (Doramapimod + Phenformin; first compound 0.6325 µM): 0.61
- relative viability (Doramapimod + Phenformin; first compound 2 µM): 0.46
- relative viability (IPA-3 + Bortezomib; first compound 0.2 µM): 1.14
- relative viability (IPA-3 + Bortezomib; first compound 0.6325 µM): 1.21
- relative viability (IPA-3 + Bortezomib; first compound 2 µM): 1.09
- relative viability (IPA-3 + Bortezomib; first compound 6.325 µM): 1.19
- relative viability (IPA-3 + Bortezomib; first compound 20 µM): 1.62

Cell Line: SW 1573
- relative viability (IPA-3 + Tozasertib; first compound 0.2 µM): 0.16
- relative viability (IPA-3 + Tozasertib; first compound 0.6325 µM): 0.23
- relative viability (IPA-3 + Tozasertib; first compound 2 µM): 0.222
- relative viability (IPA-3 + Tozasertib; first compound 6.325 µM): 0.155
- relative viability (IPA-3 + Tozasertib; first compound 20 µM): 0.136
- relative viability (Doramapimod + Decitabine; first compound 0.02 µM): 0.506
- relative viability (Doramapimod + Decitabine; first compound 0.06325 µM): 0.388
- relative viability (Doramapimod + Decitabine; first compound 0.2 µM): 0.615
- relative viability (Doramapimod + Decitabine; first compound 0.6325 µM): 0.575
- relative viability (Doramapimod + Decitabine; first compound 2 µM): 0.366
- relative viability (Doramapimod + Phenformin; first compound 0.02 µM): 0.355
- relative viability (Doramapimod + Phenformin; first compound 0.06325 µM): 0.304
- relative viability (Doramapimod + Phenformin; first compound 0.2 µM): 0.306
- relative viability (Doramapimod + Phenformin; first compound 0.6325 µM): 0.301
- relative viability (Doramapimod + Phenformin; first compound 2 µM): 0.236
- relative viability (IPA-3 + Bortezomib; first compound 0.2 µM): 1.18
- relative viability (IPA-3 + Bortezomib; first compound 0.6325 µM): 1.04
- relative viability (IPA-3 + Bortezomib; first compound 2 µM): 1.36
- relative viability (IPA-3 + Bortezomib; first compound 6.325 µM): 1.13
- relative viability (IPA-3 + Bortezomib; first compound 20 µM): 1.25
